Experimental data: paper PMC5131319, “Occurrence, temporal trends, and half-lives of perfluoroalkyl acids (PFAAs) in occupational workers in China” (Scientific Reports, 2016)
“And” between values parts separate entries of the source, which are not always exact repeats. Equal values may be shown once. Read-outs that look alike come from different tables or passages of the source.

Columns and labels:
[1] = cited from earlier work; for Half-life based on serum concentrations: humans
[2] = PFAA concentration in morning urine of occupational workers (HPLC-ESI/MS/MS); format: in vivo, human; conditions: for Urine PFOS concentration: individual workers
Experimental: The selected fluorochemical plant (Henxin Chemical Plant) in this study is one of the largest producers of PFOS-related chemicals in China and is located in Yingcheng, Hubei province. Perfluoroalkyl sulfonic acids (PFSAs) and perfluorotertiary amines are synthesized through an electro-chemical fluorination (ECF) process. We collected paired serum and urine samples from the occupational workers in the plant for five consecutive years, and the sampling activities were carried out in Nov. 2008, Nov. 2009, Nov. 2010, Dec. 2011, and Dec 2012, respectively. The Medical Research Ethics Committee, School of Medicine, Jianghan University, approved the ethics of this study, and all methods were performed in accordance with the relevant guidelines and regulations, moreover, all volunteers gave written informed consent. Demographic information of the donors, including gender, age, length of service, and work assignment, was collected with a questionnaire (Table S1). The sampled population included a total of 302 occupational workers, of which there were 89 female and 213 male participants. In total, 302 serum and 274 urine samples were collected.
The participants were told not to eat breakfast before the sampling, and morning urine samples and blood samples were collected. Serum was separated from the blood by centrifugation at 1100 × g at 4 °C for 10 min and then placed on ice. Serum samples were then transferred to our laboratory on the same day and stored in polypropylene containers at −20 °C until analysis.
All pre-treatment methods and instrument analysis of PFAAs in serum and urine samples are based on previous studies with minor modifications (see Supplementary Information)[3][31]. Based on the PFAA profiles in environmental matrices around the same plant in our previous study, only 3 main PFAAs, PFHxS, PFOA, and PFOS, were analyzed in the obtained serum and urine samples. Instrumental analysis of the PFAAs was performed by a HPLC-ESI/MS/MS system (HPLC: Waters 2695, MS: Waters Quattro Premier XE). The limits of detection (LODs) of PFHxS, PFOA, and PFOS were 0.020, 0.063, and 0.018 ng mL^−1 for serum samples and 0.008, 0.025, and 0.007 ng mL^−1 for urine samples, respectively. A procedural blank was performed for every batch of seven samples, and all of the blank levels were below the LODs. […] Details of quality assurance and quality control of the chemical analysis can be found in the Supplementary Information.
Urine samples were pretreated by solid phase extraction. Briefly, 1 mL of urine spiked with 5 ng of internal standard was added to a 15 - mL PP tube and diluted with 13 mL water. The solid phase extraction procedure was then performed following the previously described serum extraction procedure.

[3] = Half-life estimated by daily clearance rates (first-order model, k = Cltotal/Vd); format: in vivo, human; conditions: for half-life: human, serum and urine, other: occupational exposure
Excerpt: Olsen et al.[21] found linear relationship between the logarithm of serum PFAAs concentration and time, and a first order model was adopted to estimate the half-lives of PFAAs. The elimination of PFAAs in humans was also described with the following equation: […]
If we set C(t) as 1/2C0, then the half-life
where k is the elimination rate constant. We calculated k using two approaches in the present study. In the first approach, k is defined as Cltotal/Vd, where Vd stands for the volume of distribution of PFAAs in the human body. Cltotal represents the total daily PFAAs clearance in the human body; for men and women older than 50, it refers to renal clearance, while for young women, it is defined as the sum of menstrual clearance and renal clearance. To keep consistency with other studies, Vd of PFOS and PFHxS were set at 230 mL kg^−1, and Vd of PFOA was set at 170 mL kg^−1 in this study. In the second approach, k is defined as the average annual decline rates of PFAAs in workers who participated in this study.
We used a first order model to estimate the half-lives of PFAAs in workers (Eq (2)). k was defined as […], where Cltotal referred to renal clearance for men and women older than 50 and to the sum of menstrual clearance and renal clearance for young women. According to Eq (2), the half-lives of PFHxS, PFOA, and PFOS for the occupational workers tested ranged from 0.51–3799 years, 0.44–3663 years, and 0.76–30475 years, with GM and median values of 14.7 and 11.7, 4.1 and 4.0, 32.6 and 21.6 years, respectively (Table 2). […] The GM values of the half-lives of PFHxS, PFOA, and PFOS for men here were 19.9, 4.7, and 60.9 years, respectively, while those for women were 7.5, 3.1, and 8.0 years, respectively. The half-lives estimated by the limited clearance route information could be considered as the upper limits for PFAAs. It seemed likely that the unrealistically long half-life estimates derived from the urinary data were actually evidence of the contribution of fecal elimination to the clearance of these chemicals. The extremely long half-lives of PFAAs, such as 3799 years for PFHxS, 3663 years for PFOA, and 30475 years for PFOS, were caused by the application of LOD/2 instead of ND in workers’ urine samples. The geometric mean or median value of the PFAAs half-lives can better reflect the actual situation.

[4] = retired fluorochemical production workers
[5] = Fabric finishing agent department, N 8
[6] = Female workers, number 71, menstrual clearance added to renal clearance
[7] = Male workers, number 136, renal clearance

SMILES	Shortest half-life in humans reported in previous studies [1] [years]	Half-life based on serum concentrations [1]	Half-life (GM) [1, 4] [years]	Half-life by daily clearance (GM) ([1]; young females) [years]	Urine concentration, mean ([2]; All workers, N 274) [ng/mL]	Urine concentration, median ([2]; All workers, N 274) [ng/mL]	Urine concentration, mean ([2]; Electrolytic department, N 67) [ng/mL]	Urine concentration, median ([2]; Electrolytic department, N 67) [ng/mL]	Urine concentration, mean [2, 5] [ng/mL]	Urine concentration, median [2, 5]	Urine concentration, mean ([2]; Management office, N 76) [ng/mL]	Urine concentration, median ([2]; Management office, N 76) [ng/mL]	Urine concentration, mean ([2]; Research building, N 25) [ng/mL]	Urine concentration, median ([2]; Research building, N 25) [ng/mL]	Urine concentration, mean ([2]; Sulfonation department, N 98) [ng/mL]	Urine concentration, median ([2]; Sulfonation department, N 98) [ng/mL]	Half-life estimated through daily elimination, Max [3, 6] [years]	Half-life estimated through daily elimination, Min [3, 6] [years]	Half-life estimated through daily elimination, Min [3, 7] [years]	Half-life estimated through daily elimination, Min ([3]; Total workers, number 207) [years]	further results
O=S(=O)(O)C(F)(F)C(F)(F)C(F)(F)C(F)(F)C(F)(F)C(F)(F)C(F)(F)C(F)(F)F [PFOS, perfluorooctanesulfonate]	3.7	more than 5 years	4.8	5.1	4.4	1.2	1.8	0.93	0.39	LOD	1.6	0.49	1.4	1.1	8.8	3.0	15.1	0.76	2.7	0.76	Half-life, population-based pharmacokinetic model ([1]; US NHANES cross-sectional data 1999 to 2012): 3.7 years; Half-life by daily clearance (GM) ([1]; males and older females): 18 years; half-life ([1]; males and older females): exceeded 10 years; Half-life, 95% CI [1, 4]: 3.9–6.9 years; half-life [1, 4]: approximately 5 years; Urine PFOS concentration ([2]; sampling year 2008): 0.918 ng/mL and 7.8 ng/mL and 7.66 ng/mL and 0.697 ng/mL and 0.425 ng/mL and 17.2 ng/mL and 3.94 ng/mL and 2.12 ng/mL and 0.736 ng/mL and 0.943 ng/mL and 2.18 ng/mL and 0.818 ng/mL and 0.217 ng/mL and 0.819 ng/mL and 0.291 ng/mL and 4.7 ng/mL and 7.69 ng/mL and 3.07 ng/mL and 0.465 ng/mL and 22.5 ng/mL and 3.09 ng/mL; Urine PFOS concentration ([2]; sampling year 2009): 0.361 ng/mL and 7.85 ng/mL and 2.17 ng/mL and 1.4 ng/mL and 0.831 ng/mL and 1.51 ng/mL and 0.198 ng/mL and 2.73 ng/mL and 0.47 ng/mL and 0.288 ng/mL and 0.078 ng/mL and 0.206 ng/mL and 0.094 ng/mL and 0.171 ng/mL and 0.84 ng/mL and 1.33 ng/mL and 0.14 ng/mL and 1.86 ng/mL and 2.58 ng/mL and 1.8 ng/mL; Urine PFOS concentration ([2]; sampling year 2010): 1.14 ng/mL and 0.258 ng/mL and 0.177 ng/mL and 64.2 ng/mL and 0.884 ng/mL and 0.714 ng/mL and 0.912 ng/mL and 0.855 ng/mL and 2.44 ng/mL and 0.39 ng/mL and 3.98 ng/mL and 0.314 ng/mL and 0.409 ng/mL and 1.98 ng/mL and 0.139 ng/mL and 14 ng/mL and 14.2 ng/mL and 7.14 ng/mL and 3.93 ng/mL; Urine PFOS concentration ([2]; sampling year 2011): 0.14 ng/mL and 0.17 ng/mL and 0.47 ng/mL and 49.90 ng/mL and 2.18 ng/mL and 0.43 ng/mL and 0.54 ng/mL and 5.08 ng/mL and 0.52 ng/mL and 0.29 ng/mL and 0.75 ng/mL and 0.51 ng/mL and 0.04 ng/mL and 0.70 ng/mL and 0.74 ng/mL and 1.78 ng/mL and 14.70 ng/mL and 7.74 ng/mL and 4.91 ng/mL and 2.24 ng/mL; Urine PFOS concentration ([2]; sampling year 2012): 0.7 ng/mL and 26.46 ng/mL and 0.46 ng/mL and 1.62 ng/mL and 0.22 ng/mL and 0.44 ng/mL and 0.58 ng/mL and 0.18 ng/mL and 0.5 ng/mL and 0.78 ng/mL and 0.1 ng/mL and 1.64 ng/mL and 0.06 ng/mL and 0.26 ng/mL and 0.12 ng/mL and 0.42 ng/mL and 7.26 ng/mL and 7.8 ng/mL and 9.72 ng/mL and 5.64 ng/mL; Half-life estimated through daily elimination, GM [3, 6]: 8.0 years; Half-life estimated through daily elimination, Median [3, 6]: 9.4 years
O=S(=O)(O)C(F)(F)C(F)(F)C(F)(F)C(F)(F)C(F)(F)C(F)(F)F [PFHxS, perfluorohexane sulfonate]	7.3	more than 5 years	7.3	7.8	3.9	1.7	2.3	1.3	3.5	2.4 ng/mL	0.93	0.37	1.9	0.97	7.1	3.7	15.1	2.8	0.51	0.51	Urine concentration, range [2, 5]: 0.79 to 7.1 ng/mL; half-life ([3]; both sexes, Total workers, number 207, read-out: Half-life estimated through daily elimination, GM (converted)): 5370 days; half-life ([3]; both sexes, Total workers, number 207, read-out: Half-life estimated through daily elimination, Median (converted)): 4270 days; half-life ([3]; female, Female workers, number 71, menstrual clearance added to renal clearance, read-out: Half-life estimated through daily elimination, GM (converted)): 2740 days; half-life ([3]; female, Female workers, number 71, menstrual clearance added to renal clearance, read-out: Half-life estimated through daily elimination, Median (converted)): 2780 days; half-life ([3]; male, Male workers, number 136, renal clearance, read-out: Half-life estimated through daily elimination, Median (converted)): 5300 days
